Laboratory results reported in ChEMBL document CHEMBL3779854, “Biological evaluation and molecular docking studies of new curcuminoid derivatives: Synthesis and characterization” (Bioorg Med Chem Lett, 2016).
Values after ≈ are worked out from the molar mass of the structure shown. Active and inactive are the calls of the source. No cut-off for these calls is given here.

Key:
[1] = Antioxidant activity assessed as DPPH free radical scavenging activity by UV-visible spectrophotometric analysis; type: physicochemical
[2] = Antioxidant activity assessed as H2O2 scavenging activity; type: physicochemical
[3] = Antiinflammatory activity assessed as inhibition of albumin denaturation after 15 mins by BSA assay; type: functional
Escherichia coli [4] = experiment: Antibacterial activity against Escherichia coli ATCC 25922 at 10 ug after 24 hrs by well diffusion method; type: functional, organism-based
Staphylococcus aureus [5] = experiment: Antibacterial activity against Staphylococcus aureus ATCC 25923 at 10 ug after 24 hrs by well diffusion method; type: functional, organism-based
Staphylococcus aureus [6] = experiment: Antibacterial activity against Staphylococcus aureus ATCC 25923 at 50 ug after 24 hrs by well diffusion method; type: functional, organism-based
Escherichia coli [7] = experiment: Antibacterial activity against Escherichia coli ATCC 25922 at 50 ug after 24 hrs by well diffusion method; type: functional, organism-based
Pseudomonas aeruginosa = experiment: Antibacterial activity against Pseudomonas aeruginosa ATCC 27853 at 50 ug after 24 hrs by well diffusion method; type: functional; details: for zone of inhibition at 50 µg/disc: ATCC 27853, 24 h, read-out: IZ
Klebsiella pneumoniae = experiment: Antibacterial activity against Klebsiella pneumoniae ATCC 13883 at 50 ug after 24 hrs by well diffusion method; type: functional, organism-based

CN(C)c1ccc(/C=C/C(=O)/C(CNc2cccc(C(F)(F)F)c2)=C(O)/C=C/c2ccc(N(C)C)cc2)cc1
IC50 [1]: 81.69 µg/mL (≈ 153 µM)
IC50 [2]: 74.6 µg/mL (≈ 139 µM)
IC50 [3]: 186.05 µg/mL (≈ 347 µM)
Activity (Escherichia coli [4]): inactive
Activity (Staphylococcus aureus [5]): inactive

COc1ccccc1NC/C(C(=O)/C=C/c1ccc(N(C)C)cc1)=C(O)\C=C\c1ccc(N(C)C)cc1
IC50 [1]: 76.28 µg/mL (≈ 153 µM)
IC50 [2]: 53.94 µg/mL (≈ 108 µM)
IC50 [3]: 81.36 µg/mL (≈ 163 µM)
Activity (Escherichia coli [4]): Active
Activity (Staphylococcus aureus [6]): Active

COc1ccc(-n2nc(/C=C/c3ccc(N(C)C)cc3)cc2/C=C/c2ccc(N(C)C)cc2)cc1
IC50 [1]: 88.05 µg/mL (≈ 190 µM)
IC50 [2]: 79.59 µg/mL (≈ 171 µM)
IC50 [3]: 751.12 µg/mL (≈ 1620 µM)
Activity (Escherichia coli [4]): Active
Activity (Staphylococcus aureus [5]): inactive

CN(C)c1ccc(/C=C/C(=O)/C(CNc2ccc(F)cc2)=C(O)/C=C/c2ccc(N(C)C)cc2)cc1
IC50 [1]: 48.16 µg/mL (≈ 99.2 µM)
IC50 [2]: 46.9 µg/mL (≈ 96.6 µM)
IC50 [3]: 226.71 µg/mL (≈ 467 µM)
Activity (Escherichia coli [7]): Active
Activity (Escherichia coli [4]): Active
zone of inhibition at 50 µg/disc (Pseudomonas aeruginosa): 12 mm
Activity (Staphylococcus aureus [5]): inactive
Activity (Klebsiella pneumoniae): Active

O=C1O[C@H]([C@@H](O)CO)C(O)=C1O [ASCORBIC ACID]
IC50 [1]: 65.53 µg/mL (≈ 372 µM)
IC50 [2]: 68.82 µg/mL (≈ 391 µM)

CN(C)c1ccc(/C=C/c2cc(/C=C/c3ccc(N(C)C)cc3)n(-c3ccccc3)n2)cc1
IC50 [1]: 74.03 µg/mL (≈ 170 µM)
IC50 [2]: 72.42 µg/mL (≈ 167 µM)
IC50 [3]: 29.44 µg/mL (≈ 67.7 µM)
Activity (Escherichia coli [7]): Active
Activity (Escherichia coli [4]): Active
Activity (Staphylococcus aureus [6]): Active
Activity (Staphylococcus aureus [5]): Active

CN(C)c1ccc(/C=C/c2cc(/C=C/c3ccc(N(C)C)cc3)[nH]n2)cc1
IC50 [1]: 46.05 µg/mL (≈ 128 µM)
IC50 [2]: 50.78 µg/mL (≈ 142 µM)
IC50 [3]: 51.79 µg/mL (≈ 144 µM)
Activity (Escherichia coli [4]): Active
Activity (Pseudomonas aeruginosa): Active
Activity (Staphylococcus aureus [5]): inactive
Activity (Klebsiella pneumoniae): Active

COc1cc(/C=C/C(=O)CC(=O)/C=C/c2ccc(O)c(OC)c2)ccc1O [CURCUMIN]
IC50 [1]: 52.51 µg/mL (≈ 143 µM)
IC50 [2]: 52.24 µg/mL (≈ 142 µM)
IC50 [3]: 129.85 µg/mL (≈ 352 µM)
Activity (Escherichia coli [7]): Active
Activity (Escherichia coli [4]): Active
zone of inhibition at 50 µg/disc (Pseudomonas aeruginosa): 11 mm
Activity (Staphylococcus aureus [6]): Active
Activity (Staphylococcus aureus [5]): Active
Activity (Klebsiella pneumoniae): Active

CN(C)c1ccc(/C=C/C(=O)/C(CNc2ccccc2)=C(O)/C=C/c2ccc(N(C)C)cc2)cc1
IC50 [1]: 79.06 µg/mL (≈ 169 µM)
IC50 [2]: 52.13 µg/mL (≈ 111 µM)
IC50 [3]: 808.36 µg/mL (≈ 1730 µM)
Activity (Escherichia coli [4]): Active
Activity (Staphylococcus aureus [6]): Active
Activity (Staphylococcus aureus [5]): Active

O=C([O-])Cc1ccccc1Nc1c(Cl)cccc1Cl.[Na+] [DICLOFENAC SODIUM]
IC50 [3]: 52.95 µg/mL

CN(C)c1ccc(/C=C/C(=O)/C=C(O)/C=C/c2ccc(N(C)C)cc2)cc1
IC50 [1]: 78.52 µg/mL (≈ 217 µM)
IC50 [2]: 74.56 µg/mL (≈ 206 µM)
IC50 [3]: 180.38 µg/mL (≈ 498 µM)

COc1cc(C=C(C(=O)/C=C/c2ccc(N(C)C)cc2)C(=O)/C=C/c2ccc(N(C)C)cc2)ccc1O
IC50 [1]: 75.37 µg/mL (≈ 152 µM)
IC50 [2]: 44.95 µg/mL (≈ 90.5 µM)
IC50 [3]: 106.16 µg/mL (≈ 214 µM)
Activity (Escherichia coli [7]): Active
Activity (Escherichia coli [4]): Active
Activity (Pseudomonas aeruginosa): Active

CN(C)c1ccc(/C=C/c2cc(/C=C/c3ccc(N(C)C)cc3)n(-c3ccc(F)cc3)n2)cc1
IC50 [1]: 74.38 µg/mL (≈ 164 µM)
IC50 [2]: 89.05 µg/mL (≈ 197 µM)
IC50 [3]: 216.32 µg/mL (≈ 478 µM)
Activity (Escherichia coli [7]): Active
Activity (Escherichia coli [4]): Active
Activity (Staphylococcus aureus [6]): Active
Activity (Klebsiella pneumoniae): Active
